Experimental findings from US9255258B2 (priority 2009, dated 2016) are described below.

Where two headings read alike, the source gives them in different places.

In test [1] the target is Phi29 (exo-) (D169A mutant) (Bacillus phage phi29, UniProt P03680, D169A). The method, then: Base Reading Mix: 50 mM Tris (pH 7.5), 50 mM NaCl, 5 mM CaCl2, 0.2% BSA, 80 μg/mL glucose oxidase; 2000 U/mL Katalase; 1 mM Trolox; 0.5% glucose; 250 nM Phi29 (exo-) (D169A mutant), 500 nM non-hydrolyzable nucleotide (AF647-C6 alkyl linker-alpha-thio-dA4P nucleotide analog, labeled at the terminal phosphate with ALEXA FLUOR 647).
Commercial nanoparticles (605 ITK SAV quantum dots, Invitrogen, catalog # Q10001MP) were immobilized onto PEG/PEG-biotin coverslip surfaces at 5 pM for 4 minutes. The surface-immobilized nanoparticles were saturated with hairpin molecules via the biotin in the loop.
All the transient-binding and extension steps as well as the protocols and the imaging conditions were identical to the ones described in Example 8 above (6-Base Extension, 2-Color Sequencing, in the Presence of Calcium). In this experiment only one non-hydrolyzable-AF647-dA4P were used in all transient-binding steps.
The transient-binding reaction steps, using labeled non-hydrolyzable nucleotides steps, were conducted at room temperature and included: • 1.

The next test addresses Klenow (exo-) (Escherichia coli, UniProt P00582, D355A/E357A). As to conditions: P2-1 primer (template nucleotide A); 200 nM each of four base-labeled nucleotides, 250 nM Klenow (exo-), 10 mM CaCl2.

Description for Klenow (exo-): The following procedure was conducted using a SOLID sequencing instrument (SOLiD 0025) (Applied Biosystems, Foster City, Calif.), and template/primer duplexes immobilized on SOLiD S3 clonal beads, SOLiD flowcells, and Klenow polymerase.
Seven μM of the P2 primer, in 1×SSPE (150 mM NaCl, 10 mM sodium phosphate, 1 mM EDTA), was added to a SOLiD flowcell containing beads/template immobilized on a glass slide, at 25° C., then hybridized at 75° C. for 1 minute, 70° C. for 2 minutes, 65° C. for 2 minutes, 60° C. for 2 minutes, and washed with 1× Instrumentation Buffer (AB Part No. 4389784).
The labeled nucleotides were obtained from PerkinElmer Life and Analytical Science (Boston, Mass.): Cy5-dUTP, Cy3-dCTP, FAM-dGTP, and Texas Red (TxR)-dATP (base-labeled nucleotides). The Klenow fragment polymerase was obtained from New England Biolabs (No. M0212L, Ipswich, Mass.).
The beads were washed with 3 mL of Universal Buffer (50 mM NaCl, 10 mM Tris-HCl (pH 8), 10 mM CaCl2, 2 mM DTT). And 0.2 mL of Sensing Buffer Mix (200 nM each of Cy5-dUTP, Cy3-dCTP, Fam-dGTP, and Texas Red-dATP; 250 nM Klenow (exo-) in the Universal Buffer) was injected into the flowcell and incubated for 5 minutes at room temperature. […]

Take “AF647-C6 alkyl linker-alpha-thio-dA4P nucleotide analog [alpha-thio-dA4P-AF647]”: the “signal from transiently-bound nucleotide” value in test [1] (Base Reading Mix containing 5 mM MnCl2 (instead of CaCl2), correct nucleotide, 500 nM) is “no detectable signal”; in test [1] (after addition of CaCl2 (approximated 5-10 mM) to the manganese reaction, without washing), “detectable immediately upon addition of the calcium”.

In the case of Cy5-dUTP, on Klenow (exo-), the “bead fluorescence after wash” value is given as “fluoresce to a greater degree than the other dye-labeled nucleotides”.
